The text below walks through data of paper PMC8868160, “Antioxidant and Anti-α-Glucosidase Activities of Various Solvent Extracts and Major Bioactive Components from the Fruits of Crataegus pinnatifida” (Antioxidants, 2022).

A short description of assay [1]: Ferric reducing antioxidant power (FRAP). The class given is biochemical. How it is done: Ferric reducing antioxidant power was measured based on previous study with slight modification. The working solution was mixed with acetate buffer (pH 3.6), ferric chloride solution (20 mM), and TPTZ solution (10 mM TPTZ in 40 mM HCl) in a proportion of 10:1:1, respectively, and freshly prepared before used. An amount of 900 μL of the working solution was warmed to 37 °C and then mixed with 100 μL of the diluted sample, blank or standard in a microcentrifuge tube. The tubes were vortexed and in the dry bath at 37 °C for 40 min. Absorbance was measured at 593 nm. […] Results are expressed in mM TE/g dry weight. Additional dilution was needed if the FRAP value measured was over the linear range of the standard curve.

The nature of assay [2]: DPPH radical scavenging activity. The class given is biochemical. How it is done:
The scavenging activity of DPPH radical was investigated as described with slight modification. DPPH solution was prepared diluted by EtOH to reach the final concentration of 200 µM. Different concentrations (200, 100, 50, 25, and 12.5 µg/mL) of extracts or compounds (100 µL) were mixed with DPPH solution (100 µL) and incubated for 30 min at room temperature and in darkness, and the absorbance of the mixture was measured at 520 nm. DPPH radical scavenging activity was calculated with the following formula: DPPH scavenging activity (%) = (Ac − At)/Ac × 100, where At is the absorbance of the test sample, and Ac is the absorbance of the control (untreated group). BHT was used as the positive control. All half-maximal inhibitory concentration (IC50) values of tested activities were determined by the linear regression of the percentage of remaining DPPH radical against the sample’s concentration.

Assay [3] is described as follows: Hydroxyl radical scavenging activity (Fenton reaction, deoxyribose). The assay is classed as biochemical. How it is done: The scavenging activity of hydroxyl radical was measured based on the method described by Mathew and Abraham with slight revision. In short, different concentrations (400, 200, 10, 50, and 25 µg/mL) of extracts or compounds (200 μL) were mixed with working solution (200 μL) contained 1 mM FeCl3, 1 mM EDTA, and 2.8 mM deoxyribose. Then, 20 μL ascorbic acid (1 mM) and 100 μL H2O2 (20 mM) in sodium phosphate buffer (20 mM pH 7.4) was added. The mixture was incubated in a water bath at 37 °C for 1 h to trigger the Fenton reaction and form a hydroxyl radical. After incubation, 2.8% TCA (200 μL) and 1% TBA (200 μL) were added and boiled in the dry bath at 100 °C for 1 h. The mixture was measured at 532 nm by the following equation:Hydroxyl radical scavenging activity (%) = (Ac − At)/Ac × 100, where At and Ac are the absorbance of the test sample and the control (untreated group), respectively. The IC50 values of all tested activities were determined by the linear regression of the percentage of remaining hydroxyl radical against the sample’s concentration.

A further assay addresses T1, α-glucosidase (Saccharomyces cerevisiae, UniProt P53341).
T1 construct: purchased Sigma-Aldrich
Briefly: biochemical. The procedure:
The inhibition assay of α-glucosidase was conducted using the conditions previously reported with slight modifications. The α-Glucosidase solution was diluted by 0.1 M sodium phosphate buffer (pH 6.8) to 1 U/mL. […] Subsequently, p-NPG (0.53 mM; 380 μL), the substrate, was added and incubated in dry baths at 37 °C for 40 min after the mixture vortexed. The reaction was terminated after adding 0.1 M Na2CO3 solution (500 μL). The absorbance of released p-nitrophenol (p-PNP) was measured by calculating the decrease in absorbance measured at 400 nm by the following equation:α-Glucosidase inhibition (%) = (Ac − At)/Ac × 100, where Ac is the absorbance of the control (untreated group), and At is the absorbance of the test sample. The IC50 values of all tested activities were determined by the linear regression of the percentage of remaining α-glucosidase against the sample concentration.

The nature of assay [4]: Superoxide radical scavenging activity (PMS/NADH-NBT system). The class given is biochemical. As to conditions: isolated components (Table 5). How it is done: The scavenging activity of superoxide anion radical (O2^•−) was evaluated using a modified method. NBT (300 μM), NADH (468 μM), and PMS (120 μM) were prepared with dilution by Tris-HCl buffer (16 mM, pH 8.0), respectively. An amount of 50 μL of NBT, PMS, and different concentrations (400, 200, 10, 50, and 25 µg/mL) of extracts or compounds were mixed. An amount of 50 μL NADH solution was added, and the reaction was initiated to produce superoxide radicals. The absorbance was measured at 560 nm after incubating at room temperature for 5 min. The scavenging activity was measured by the following equation:Superoxide radical scavenging activity = (Ac − At)/Ac × 100, where At is the absorbance of the test sample, and Ac is the absorbance of the control (untreated group). The IC50 values of all tested activities were determined by the linear regression of the percentage of remaining superoxide radical against the sample concentration.

A short description of assay [5]: ABTS radical scavenging activity. The class given is biochemical. The procedure: ABTS radical scavenging activity of each extract was measured based on the method with slight changes. In brief, the stock of working solution was prepared by the mix of 28 mM ABTS solution and 9.6 mM potassium persulfate with ddH2O (final concentration, 1/1, v/v) and leaving the mixture in the dark for about 16 h at room temperature before use. The working solution was diluted by EtOH to reach the absorbance of 0.70 ± 0.02 at 740 nm for further experiments. Different concentrations (200, 100, 50, 20, and 12.5 µg/mL) of extracts or compounds (10 µL) were mixed with the working solution (190 μL). The mixture was incubated at room temperature for 6 min, the antioxidant activity of the mixture was determined by calculating the decrease in absorbance measured at 740 nm by the following equation:ABTS radical inhibiting activity (%) = (Ac − At)/Ac × 100,
Where Ac and At are the absorbance of the control (untreated group) and test sample, respectively. The IC50 values of all tested activities were determined by the liner regression of the percentage of remaining ABTS radical against the sample’s concentration.

[6] abbreviates: isolated components, mM Trolox equivalents per gram (Table 5).
Where [7] appears, read: isolated components, BHT positive control (Table 5).
Where [8] appears, read: solvent extracts, BHT positive control (Table 2).

Where two headings read alike, the source gives them in different places. Some results are limits rather than exact numbers.

T1 sequence (P53341 whole entry): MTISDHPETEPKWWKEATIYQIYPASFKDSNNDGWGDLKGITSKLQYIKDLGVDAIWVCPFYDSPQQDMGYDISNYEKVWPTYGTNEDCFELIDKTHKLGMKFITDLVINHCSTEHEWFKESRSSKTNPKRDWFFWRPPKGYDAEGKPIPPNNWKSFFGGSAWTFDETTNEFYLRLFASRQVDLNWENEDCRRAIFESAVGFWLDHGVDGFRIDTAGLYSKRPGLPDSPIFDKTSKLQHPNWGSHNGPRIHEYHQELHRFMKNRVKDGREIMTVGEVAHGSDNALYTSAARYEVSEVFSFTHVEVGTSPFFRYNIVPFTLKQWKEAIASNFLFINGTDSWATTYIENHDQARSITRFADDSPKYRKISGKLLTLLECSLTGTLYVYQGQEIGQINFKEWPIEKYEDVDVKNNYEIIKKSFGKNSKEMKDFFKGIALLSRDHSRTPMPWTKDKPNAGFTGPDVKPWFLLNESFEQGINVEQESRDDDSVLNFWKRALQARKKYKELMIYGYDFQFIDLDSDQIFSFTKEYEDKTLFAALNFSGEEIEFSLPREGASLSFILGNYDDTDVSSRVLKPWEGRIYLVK

The IC50 is the concentration that inhibits the measured activity by half. As to `Oc1cc(O)c2c(c1)O[C@H](c1ccc(O)c(O)c1)[C@H](O)[C@H]2c1c(O)cc(O)c2c1O[C@H](c1ccc(O)c(O)c1)[C@H](O)C2` [Procyanidin B2, procyanidin B2], the “FRAP (TE)” value in assay [1] (setting [6]) is recorded as 11,092.44 ± 32.92 mM/g; in assay [1] (isolated components, mM Trolox equivalents per gram (Table 5), listed as procyanidin B2), ≥ 7726.67 ± 39.97 mM/g. Further, the “DPPH IC50” value in assay [2] (setting [7]) came out at 2.81 ± 0.08 µg/mL. The “Hydroxyl IC50” value in assay [3] (setting [7]) was determined as 13.69 ± 1.88 µg/mL. Further, half-maximal inhibition against α-glucosidase (IC50) was put at 205 µM. In addition, the “Superoxide IC50” value in assay [4] worked out at 37.22 ± 0.63 µg/mL. Also, in assay [5] (setting [7]), the “ABTS IC50” value amounted to 2.91 ± 0.57 µg/mL.
`Cc1cc(C(C)(C)C)c(O)c(C(C)(C)C)c1` [BHT, Butylated hydroxytoluene, reference compound]: the “FRAP (TE)” value in assay [1] (setting [6]) and in assay [1] (millimolar Trolox equivalents per gram of extract (Table 2)) was 4257.97 ± 44.90 mM/g in each case. In addition, the “DPPH IC50” value turned out to be 24.04 ± 4.40 µg/mL in assay [2] (setting [7]) and 34.28 ± 1.40 µg/mL in assay [2] (solvent extracts of C. pinnatifida fruits, BHT positive control (Table 2)). Moreover, the “Hydroxyl IC50” value in assay [3] (setting [7]) came out at 60.62 ± 2.58 µg/mL; in assay [3] (setting [8]) it was 61.51 ± 2.46 µg/mL. Moreover, the entries for the “ABTS IC50” value in assay [5] (setting [7]) and in assay [5] (setting [8]) were 16.13 ± 3.29 µg/mL and 12.34 ± 0.29 µg/mL, respectively.
Consider `O=c1c(O[C@@H]2O[C@H](CO)[C@H](O)[C@H](O)[C@H]2O)c(-c2ccc(O)c(O)c2)oc2cc(O)cc(O)c12` [Hyperoside, hyperoside], for which the “DPPH IC50” value in assay [2] (setting [7]) stood at 5.29 ± 0.17 µg/mL. Moreover, half-maximal inhibition at α-glucosidase (IC50) required 75.3 µM. In addition, in assay [4], the “Superoxide IC50” value came to 10.59 ± 0.22 µg/mL. In assay [5] (setting [7]), the “ABTS IC50” value was determined as 18.00 ± 0.16 µg/mL.
With `Oc1cc(O)c2c(c1)O[C@H](c1ccc(O)c(O)c1)[C@H](O)C2` [Epicatechin, epicatechin], the “FRAP (TE)” value in assay [1] (setting [6]) is 13,165.19 ± 42.42 mM/g; in assay [1] (isolated components, mM Trolox equivalents per gram (Table 5), listed as epicatechin), ≥ 7726.67 ± 39.97 mM/g. In addition, the “DPPH IC50” value in assay [2] (setting [7]) came to 2.53 ± 0.25 µg/mL. Moreover, the “Hydroxyl IC50” value in assay [3] (setting [7]) was 20 ± 3.49 µg/mL. Besides, the IC50 on α-glucosidase (read-out: α-Glucosidase IC50 (converted)) is 282 µM. Also, the “Superoxide IC50” value in assay [4] is 41.56 ± 0.20 µg/mL. The “ABTS IC50” value in assay [5] (setting [7]) was found to be 3.75 ± 0.03 µg/mL.
